US20220288004A1, “TREATMENT AND PREVENTION OF AGING RELATED-DISEASE AND/OR AGING BY THE INHIBITION OF SPHINGOLIPIDS” (ECOLE POLYTECHNIQUE FEDERALE DE LAUSANNE (EPFL), priority 2019, published 2022)

Tested on: human primary myoblasts
Experiment: Human primary myoblast differentiation
Type: cell-based
Conditions: 30 μM myriocin vs DMSO
Description: Cell culture and cell transfection. The C2C12 mouse myoblast cell line was obtained from the American Type Culture Collection (CRL-1772™). C2C12 cells or clones were cultured in growth medium consisting of Dulbecco's modified Eagle's medium (Gibco, 41966-029), 20% Fetal Bovine Serum (Gibco, 10270-106) and 100 U/mL penicillin and […] streptomycin (Gibco, 15140-122). To induce differentiation, FBS was substituted with 2% horse serum (Gibco, 16050-122). Trypsin-EDTA 0.05% (GIBCO, 25300-062) was used to detach cells. Human skeletal muscle cells were obtained from Lonza (SkMC, #CC-2561) and cultured in growth medium consisting of DMEM/F12 (Gibco, 10565018), 20% Fetal Bovine Serum (Gibco, 10270-106) and 100 U/mL penicillin and […] streptomycin (Gibco, 15140-122). To induce differentiation, FBS was reduced to 2% and kept in culture. All cells were maintained at 37° C. with 5% CO2. Cell transfections were done using TransiT (Mirus) according to the manufacturer's protocol with a 3:1 ratio of transfection agent to DNA. […]
Immunocytochemistry. […] The immunofluorescence images were acquired using either fluorescence or confocal microscopy. The myofusion index was calculated as the ratio of nuclei within myotubes to total nuclei. The myotube diameter was measured for 8 myotubes per image using ImageJ. Myotube area was calculated as the total area covered by myotubes.

CCCCCCC(=O)CCCCCCC=CCC(O)C(O)C(N)(CO)C(=O)O (centres unmarked) [myriocin, 2-Amino-3,4-dihydroxy-2-(hydroxymethyl)-14-oxoicos-6-enoic acid]
human myoblast differentiation: accelerated
myotube area: larger
